Assay results from PubChem BioAssay AID1919005 (Molecular Pharmacology Branch, DTP, NCI, 2023).
Values joined by “and” are separate entries in the source; they are usually repeats but may differ in a detail not shown here. Identical values can stand only once.

System: 855422-203-R-J1-PDC complex spheroid growth
Experiment: Anticancer human tumor 855422-203-R-J1-PDC patient-derived bladder carcinoma cell line growth inhibition [AhR]
Conditions: for viability, T/C: stronger effect = lower value
From the text: Multicellular complex tumor spheroid response to aryl hydrocarbon receptor antagonists in combination with a variety of drugs and investigational agents in selected tumor cell lines
The current study was undertaken to assess response to aryl hydrocarbon receptor antagonists in combination with standard-of-care drugs and investigational agents in solid tumor complex spheroid models. Complex spheroids include a stromal component modeled by human endothelial cells (HUVEC) and fibroblasts modeled by human mesenchymal stem cells (MSCs). The concentration ranges selected for each drug and investigational agent were based upon clinically achievable concentrations if the clinical Cmax of the agent was known.
Compounds. The drugs and investigational agents: BAY 2416964 (NSC825713), GNF351 (NSC835774), CH-223191 (NSC835775), CPI-455 (NSC825282), aza-TdCyd (NSC777586), decitabine (NSC127716), belinostat (NSC758774), entinostat (NSC756642), pevonedistat (NSC761192), tazemetostat (NSC777109), talazoparib (NSC765396), olaparib (NSC753686), selinexor (NSC780203), nedisertib (M3814, NSC802822), bortezomib (NSC756655), venetoclax (NSC766270), doxorubicin (NSC123127), elimusertib (BAY189344, NSC800525), ceralasertib (AZD6738, NSC777638), TAK-243 (NSC785004), alisertib (NSC759677), etoposide (NSC141540), topotecan (NSC609699), eribulin (NSC707389), gemcitabine (NSC613327), carboplatin (NSC241240), cisplatin (NSC119875), and SN-38 (NSC673596) were obtained from the National Cancer Institute (NCI) Developmental Therapeutics Program Chemical Repository (32). The FDA-approved anticancer drug set is available from the Developmental Therapeutics Program at https://dtp.cancer.gov/organization/dscb/obtaining/available plates.htm. […] The stock solutions were prepared in dimethyl sulfoxide (DMSO, Sigma-Aldrich, St. Louis, MO, cat. D2650), except for the platinum compounds which were prepared in saline (Quality Biological, Gaithersburg, MD, cat. 114-055-101), at 800-fold the tested concentration and stored at -70 degrees C prior to their use. All drugs and investigational agents were tested over a range starting from a high concentration at or near the clinical Cmax and decreasing in half-log increments. If the clinical Cmax for an agent had not been determined, the highest concentration tested was 10 microM (Table 1).
Cell Culture. All cells were maintained in an incubator at 37 degrees C and 5% CO2 with 95% humidity. The PDC lines were cultured according to standard operating procedures established by the NCI PDMR (https://pdmr.cancer.gov). Briefly, all PDCs were thawed and cultured in Matrigel-coated flasks prepared with a working solution of 1X Ham's F-12 nutrient mix, without supplementation (Invitrogen, Waltham, MA, cat. 11765054), 100 U/mL penicillin-streptomycin (Invitrogen, cat. 15140122), and 2.5% Matrigel (Corning Inc., Corning, NY, cat. 354248) for the first three passages. All PDCs were cultured in complete DMEM/F-12 media containing advanced DMEM/F-12 (Invitrogen, cat. 12634028), 4.9% defined fetal bovine serum, heat inactivated (HyClone Laboratories Inc., Logan, UT, cat. SH30070.03HI), 389 ng/mL hydrocortisone (Sigma-Aldrich, cat. H4001), 9.7 ng/mL human EGF recombinant protein (Invitrogen, cat. PHG0313), 23.4 microg/mL adenine (Sigma-Aldrich, cat. A2786), 97.3 U/mL penicillin-streptomycin (Invitrogen, cat. 15140122), 1.9 mM L-glutamine (Invitrogen, cat. 25030081), and 9.7 microM Y-27632 dihydrochloride (Tocris Bioscience, Bristol, United Kingdom, cat. 1254). The PDCs were cultured in complete DMEM/F12 media without 10 microM Y-27632 dihydrochloride for at least two passages prior to the screen. The established cell lines NCI-H1341 and […] were cultured in DMEM/F-12, HEPES (Invitrogen, cat. 11330032), 5% defined fetal bovine serum (HyClone Laboratories Inc., cat. SH30070.03), ITS premix universal culture supplement [insulin (5 microg/mL), transferrin (5 microg/mL), and selenious acid (5 ng/mL)] […]
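Also: spheroids exposed to agents for seven days before readout.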
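For viability, T/C in this document: percent of DMSO vehicle control luminescence viability.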

SMILES	IC50 (curve of compound)	viability, T/C (compound 0.0316 µM)	viability, T/C (compound 0.1 µM)	viability, T/C (compound 0.316 µM)	viability, T/C (compound 1 µM)	viability, T/C (compound 3.16 µM)	viability, T/C (compound 10 µM)	also measured
CC(C)CC(NC(=O)C(Cc1ccccc1)NC(=O)c1cnccn1)B(O)O (stereo not given)	0.00279 µM and 0.00576 µM and 0.00185 µM	–	–	–	–	–	–	viability, T/C (compound 0.000949 µM): 110% and 101% and 118%; viability, T/C (compound 0.00949 µM): 0.21% and 0.27% and 0.11%; viability, T/C (compound 0.03 µM): 0.16% and 0.14% and 0.42%; viability, T/C (compound 0.0949 µM): 0.15% and 0.14% and 0.12%; viability, T/C (compound 0.3 µM): 0.19% (2×) and 0.21%
CC(CO)NC(=O)c1cc(-c2ccc(Cl)cc2)nn(-c2cnn(C)c2)c1=O (stereo not given)	–	–	92.2% [middle of 20 runs]	–	94.9% [middle of 21 runs]	96.8% [middle of 19 runs]	91.4% [middle of 19 runs]	IC50 (compound alone, run of 05/31/2022): > 10 µM
CC1(C)CCC(CN2CCN(c3ccc(C(=O)NS(=O)(=O)c4ccc(NCC5CCOCC5)c([N+](=O)[O-])c4)c(Oc4cnc5[nH]ccc5c4)c3)CC2)=C(c2ccc(Cl)cc2)C1	6.19 µM and 6.99 µM and 5.93 µM	98.4% and 107% and 103%	95.8% and 106% and 98.7%	108% and 103% (2×)	97.6% and 116% and 104%	108% and 118% and 100%	13.2% and 22.8% and 8.45%	–
CC[C@@]1(O)C(=O)OCc2c1cc1n(c2=O)Cc2cc3c(CN(C)C)c(O)ccc3nc2-1	0.0599 µM and 0.0729 µM and 0.0947 µM	85% and 93.4% and 94.9%	22.1% and 33.6% and 47.4%	–	–	–	–	viability, T/C (compound 0.000316 µM): 93% and 97.1% and 101%; viability, T/C (compound 0.001 µM): 114% and 106% (2×); viability, T/C (compound 0.00316 µM): 98.4% and 103% and 105%; viability, T/C (compound 0.01 µM): 99.3% and 101% and 106%
CCc1c2c(nc3ccc(O)cc13)-c1cc3c(c(=O)n1C2)COC(=O)[C@]3(O)CC	0.00817 µM and 0.0207 µM and 0.0097 µM	–	–	–	–	–	–	viability, T/C (compound 0.000949 µM): 96.8% and 105% and 92.3%; viability, T/C (compound 0.003 µM): 83.7% and 99.2% and 88.8%; viability, T/C (compound 0.00949 µM): 44.9% and 86.1% and 49.6%; viability, T/C (compound 0.03 µM): 14.9% and 32.5% and 16.6%; viability, T/C (compound 0.0949 µM): 8.05% and 16.5% and 9.46%; viability, T/C (compound 0.3 µM): 5.61% and 9.17% and 5.63%
COc1cc(C2c3cc4c(cc3C(OC3OC5COC(C)OC5C(O)C3O)C3COC(=O)C23)OCO4)cc(OC)c1O (stereo not given)	0.417 µM and 0.584 µM and 0.553 µM	96.6% and 94.9% and 94.2%	98.4% and 97.4% and 106%	61% and 81.5% and 67.7%	14.2% and 22% and 29.3%	9.05% and 11.6% and 17.3%	4.28% and 5.57% and 7.14%	–
COc1cc(Nc2ncc3c(n2)-c2ccc(Cl)cc2C(c2c(F)cccc2OC)=NC3)ccc1C(=O)O	–	102% and 109% and 95.2%	105% and 114% (2×)	60.7% and 90.8% and 66.4%	55.4% and 89% and 51.6%	47.3% and 82.6% and 48.8%	45.4% and 68.6% and 47%	–

Second part, led by results:

IC50 (curve of compound)	SMILES	viability, T/C (compound 0.0316 µM)	viability, T/C (compound 0.1 µM)	viability, T/C (compound 0.316 µM)	viability, T/C (compound 1 µM)	viability, T/C (compound 3.16 µM)	viability, T/C (compound 10 µM)	also measured
> 10 µM	CC(C)c1c(-c2ccccc2)nc2c(C#N)c[nH]n2c1=O	105% and 98.6% and 111%	97.8% and 96% and 112%	111% and 97% and 96.5%	99.3% and 89.9% and 105%	105% and 98.1% and 98.8%	77.9% and 92% and 96.4%	–
0.244 µM and 0.546 µM and 0.421 µM	CC1COCCN1c1cc(-c2ccnn2C)c2ccnc(-c3ccn[nH]3)c2n1 (stereo not given)	106% and 101% and 96.2%	98.3% and 103% and 91.9%	36.1% and 71.9% and 59.7%	12.2% and 25.8% and 17.1%	–	–	viability, T/C (compound 0.00316 µM): 99.8% and 104% and 109%; viability, T/C (compound 0.01 µM): 100% and 108% and 107%
7.02 µM and > 10 µM	CC1COCCN1c1cc(C2(S(C)(=N)=O)CC2)nc(-c2ccnc3[nH]ccc23)n1 (stereo not given)	93.4% and 101% and 98.8%	106% and 102% and 113%	99.9% and 101% and 88.2%	108% and 106% and 115%	125% and 124% and 123%	24.9% and 56.9% and 59.1%	–
> 3 µM	CCN(c1cc(-c2ccc(CN3CCOCC3)cc2)cc(C(=O)NCc2c(C)cc(C)[nH]c2=O)c1C)C1CCOCC1	–	–	–	–	–	–	viability, T/C (compound 0.00949 µM): 105% (2×) and 109%; viability, T/C (compound 0.03 µM): 100% and 102% and 108%; viability, T/C (compound 0.0949 µM): 100% and 105% and 99.7%; viability, T/C (compound 0.3 µM): 94.2% and 98.2% and 97.3%; viability, T/C (compound 0.949 µM): 96.8% and 91.9% and 88.2%; viability, T/C (compound 3 µM): 78.1% and 92.2% and 80.9%
> 10 µM	COc1ccc([C@@H](O)c2cc(-c3ncnc4cc(N5CCOCC5)ccc34)c(F)cc2Cl)nn1	115% and 108% (2×)	97.6% and 101% and 89.4%	102% and 105% and 88.9%	89.7% and 98.2% and 82%	79% and 89.1% and 76.9%	52.3% and 71.5% and 57.8%	–
